Results taken from ChEMBL document CHEMBL1149731, “Aflavarin and -Aflatrem: New Anti-Insectan Metabolites from the Sclerotia of Aspergillus flavus” (1992).
Values after ≈ are worked out from the molar mass of the structure shown. Active and inactive are the calls of the source. The rule behind the calls is not given here.

Key:
[1] = test system: Carpophilus; assay: Antiinsectan activity against adult Carpophilus hemipterus assessed as feeding reduction at 100 ppm administered through test diet relative to control; format: functional
[2] = test system: Carpophilus; assay: Antiinsectan activity against Carpophilus hemipterus larvae assessed as feeding reduction at 100 ppm administered through test diet relative to control; format: functional
[3] = test system: Carpophilus; assay: Insecticidal activity against Carpophilus hemipterus; format: functional, organism-based
[4] = test system: Bacillus subtilis; assay: Antibacterial activity against Bacillus subtilis at 100 ug/disk by standard disk assay; format: functional, organism-based
[5] = test system: Staphylococcus aureus; assay: Antibacterial activity against Staphylococcus aureus at 100 ug/disk by standard disk assay; format: functional, organism-based
[6] = test system: Candida albicans; assay: Antifungal activity against Candida albicans at 100 ug/disk by standard disk assay; format: functional, organism-based
[7] = test system: A549; assay: Cytotoxicity against human A549 cells; format: functional; details: read-out: ED50 (the source's name)
[8] = test system: MCF7; assay: Cytotoxicity against human MCF7 cells; format: functional; details: read-out: ED50 (the source's name)
[9] = test system: HT-29; assay: Cytotoxicity against human HT-29 cells; format: functional; details: read-out: ED50 (the source's name)
[10] = test system: Helicoverpa zea; assay: Insecticidal activity against Helicoverpa zea assessed as reduction in growth rate; format: functional, organism-based

| Structure (SMILES) | Activity [1] | Activity [2] | Activity [3] | Activity [4] | Activity [5] | Activity [6] | EC50 [7] | EC50 [8] | EC50 [9] | Activity [10] |
| --- | --- | --- | --- | --- | --- | --- | --- | --- | --- | --- |
| COc1cc(C)c2c(OC)cc(=O)oc2c1-c1c(O)cc(C)c2c(OC)cc(=O)oc12 | inactive | inactive | – | – | – | – | – | – | – | – |
| COc1cc(CO)c2c(OC)c(-c3c(OC)cc(C)c4c(OC)cc(=O)oc34)c(=O)oc2c1 [AFLAVARIN] | 66% | 53% | Active | inactive | inactive | inactive | 7.5 µg/mL (≈ 16.5 µM) | 55 µg/mL (≈ 121 µM) | 5.8 µg/mL (≈ 12.8 µM) | – |
| C=CC(C)(C)c1ccc2[nH]c3c(c2c1)C[C@@H]1CC[C@@]2(O)C4=CC(=O)[C@@H]5O[C@]4(CC[C@]2(C)[C@@]31C)OC5(C)C | – | – | – | – | – | – | – | – | – | Active |
